Blank lines part the entries; values can stand above or below the compound they belong to.
How the values were obtained:
Assay type in all cases: functional, cell-based
[1] = biological target: T1, Organic cation/carnitine transporter 2 (Homo sapiens, UniProt O76082); assay: TP_TRANSPORTER: inhibition of Carnitine uptake (Carnitine: 0.010? uM, alphaKG: 500 uM) in OCTN2-expressing HEK293 cells; details: hek293, 500 µM
T1 sequence (O76082 whole entry): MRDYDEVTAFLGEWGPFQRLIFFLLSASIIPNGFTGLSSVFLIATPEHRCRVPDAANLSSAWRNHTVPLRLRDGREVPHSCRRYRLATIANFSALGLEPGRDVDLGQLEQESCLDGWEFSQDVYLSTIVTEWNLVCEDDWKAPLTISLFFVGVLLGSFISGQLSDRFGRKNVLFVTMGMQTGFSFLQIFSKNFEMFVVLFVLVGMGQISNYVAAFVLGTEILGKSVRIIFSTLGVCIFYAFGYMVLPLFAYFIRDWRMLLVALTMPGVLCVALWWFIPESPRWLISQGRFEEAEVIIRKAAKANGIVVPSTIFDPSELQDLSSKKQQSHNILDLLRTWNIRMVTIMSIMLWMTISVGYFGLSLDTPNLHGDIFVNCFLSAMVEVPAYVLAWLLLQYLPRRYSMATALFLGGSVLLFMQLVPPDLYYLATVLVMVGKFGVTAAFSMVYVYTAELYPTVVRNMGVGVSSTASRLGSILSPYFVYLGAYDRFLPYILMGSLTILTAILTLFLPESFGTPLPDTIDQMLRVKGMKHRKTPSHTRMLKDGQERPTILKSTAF

[2] = biological target: T1, Organic cation/carnitine transporter 2; assay: TP_TRANSPORTER: inhibition of Carnitine uptake (Carnitine: 0.010? uM, PAH: 500 uM) in OCTN2-expressing HEK293 cells; details: hek293, 500 µM
[3] = biological target: T1, Organic cation/carnitine transporter 2; assay: TP_TRANSPORTER: uptake in OCTN2-expressing HEK293 cells
[4] = biological target: T1, Organic cation/carnitine transporter 2; assay: TP_TRANSPORTER: inhibition of Carnitine uptake (Carnitine: 0.010? uM, NMN: 500 uM) in OCTN2-expressing HEK293 cells; details: hek293, 500 µM
[5] = biological target: T1, Organic cation/carnitine transporter 2; assay: TP_TRANSPORTER: inhibition of Carnitine uptake (Carnitine: 0.010? uM, Norfloxacin: 500 uM) in OCTN2-expressing HEK293 cells; details: hek293, 500 µM
[6] = biological target: T1, Organic cation/carnitine transporter 2; assay: TP_TRANSPORTER: inhibition of Carnitine uptake (Carnitine: 0.010? uM, Pivalate: 500 uM) in OCTN2-expressing HEK293 cells; details: hek293, 500 µM
[7] = biological target: T1, Organic cation/carnitine transporter 2; assay: TP_TRANSPORTER: inhibition of Carnitine uptake (Carnitine: 0.010? uM, SPLX: 500 uM) in OCTN2-expressing HEK293 cells; details: hek293, 500 µM

Activity [1]: is not an inhibitor [-]
SMILES: O=C(O)CCC(=O)C(=O)O [ALPHA-KETOGLUTARIC ACID]

Activity [2]: is not an inhibitor [-] | Activity [3]: is not a substrate [-]
SMILES: Nc1ccc(C(=O)NCC(=O)O)cc1 [AMINOHIPPURIC ACID]

Activity [4]: is not an inhibitor [-]
SMILES: CNC(=O)c1cccnc1 [NICOTINYL METHYLAMIDE]

Activity [5]: is not an inhibitor [-]
SMILES: CCn1cc(C(=O)O)c(=O)c2cc(F)c(N3CCNCC3)cc21 [NORFLOXACIN]

Activity [6]: is not an inhibitor [-]
SMILES: CC(C)(C)C(=O)O [PIVALATE]

Activity [7]: is not an inhibitor [-]
SMILES: C[C@@H]1CN(c2c(F)c(N)c3c(=O)c(C(=O)O)cn(C4CC4)c3c2F)C[C@H](C)N1 [SPARFLOXACIN]

From ChEMBL document CHEMBL2073748, “Na(+)-dependent carnitine transport by organic cation transporter (OCTN2): its pharmacological and toxicological relevance” (J Pharmacol Exp Ther, 1999)
